Columns and labels:
[1] = test system: VX2 tumor glycolysis; test: Glycolytic activity (lactic acid formation) of VX2 tumor slices; format: cell-based, rabbit; settings: for inhibition of VX2 tumor glycolysis (screen): 6 mM agent, 6 mM glucose, 37° C., 5 h
Description: Glycolysis was assayed by monitoring the formation of lactic acid following the addition of glucose to a medium containing VX2 tumor slices. Specifically, freshly excised tumors were washed 3 times at 4° C. in 20 ml Chance Hess Medium containing 6.2 mM KCl, 154 mM NaCl, and 11 mM NaPi, pH 7.4. Slices, 1 g each, were then prior incubated for 30 min in a Lab-Line incubator-shaker at 37° C. in 2 ml of the same medium while shaking at 50 rpm. Glucose was then added to give a final concentration of 6 mM, after which the incubation/shaking process was continued with 0.2 ml samples being removed every 30 min for up to 2 h. These samples were subjected to centrifugation at 14,000 rpm in an Eppendorf Centrifuge (Model 5415C). Then, aliquots of the supernatant, 0.01 ml, were removed from each sample, diluted with 0.03 ml of water and subjected to lactic acid determination using the kit supplied by Sigma. The latter contains, in addition to lactic dehydrogenase and NAD+, hydrazine, and glycine buffer, pH 9.2. The mixture was incubated for 30 min at 25° C. after which the absorbance due to formation of NADH was determined at 340 nm using a Gilford Model 260 spectrophotometer. To assess the elevation of the glycolytic activity of the VX2 tumor over that of liver tissue, parallel studies were always carried out in an identical manner with 1 g liver slices derived from the host liver. Finally, in those cases where agents were tested for their capacity to inhibit glycolysis, these were introduced into the system at the prior incubation step with all subsequent steps being run in parallel with those described above for the VX2 tumor or liver alone.
The screen included the following 9 compounds: 2-deoxyglucose (2DOG), 2-fluoro-2-deoxyglucose, 6-fluoro-6-deoxyglucose, 3-O-methyl glucose, 5-thio-D-glucose-6-phosphate, L-glucose, D-xylose, D-lyxose, and 3-bromopyruvic acid (3BrPA). The screen was conducted by incubating VX2 tumor slices in a medium containing 6 mM glucose with 6 mM of each of these agents at 37° C. for 5 h. The use of 6 mM glucose in the medium was used to mimic the maximal amount of glucose that might be in the blood in a real in vivo situation.
To compare the inhibitory effects of 2DOG and 3BrPA on the glycolytic capacity of the isolated liver implanted VX2 tumor, various concentrations of 2DOG and 3BrPA were prior incubated for 30 min at 37° C. with 1 g VX2 tumor slices and glycolysis was monitored.

[2] = test system: AS-30D hepatoma cells; test: Killing of AS-30D hepatoma cells (trypan blue); format: cell-based, rat; settings: 20 mM, 12 h
Description: AS-30D hepatoma cells grown in the peritoneal cavity of Sprague Dawley female rats (see Materials) were adapted to grow in tissue culture in Dulbecco's modified Eagle's medium containing 10% fetal bovine serum. Cells were maintained at 37° C. in a humidified atmosphere containing 5% CO2, and counted in a Neubauer chamber after trypan blue dye addition (cell/dye volume=1/1) by visualization under a Nikon inverted microscope.
The studies described above using the VX2 tumor model for liver cancer predict that 2DOG and 3BrPA may have the capacity to kill hepatoma cells expressing the high glycolytic/high hexokinase phenotype. […] Cell killing was assessed in these experiments by counting those cells in which trypan blue had entered.

| Compound | inhibition of VX2 tumor glycolysis (screen) ([1]; VX2 tumor slices) | further results |
| --- | --- | --- |
| O=C[C@H](F)[C@@H](O)[C@H](O)[C@H](O)CO [2-fluoro-2-deoxyglucose] | ineffective | – |
| O=C[C@H](O)[C@@H](O)[C@H](O)[C@H](O)CF [6-fluoro-6-deoxyglucose] | ineffective | – |
| CO[C@@H]([C@H](O)[C@H](O)CO)[C@@H](O)C=O [3-O-methyl glucose] | ineffective | – |
| O=C[C@@H](O)[C@@H](O)[C@H](O)CO [D-lyxose] | ineffective | – |
| O=C[C@H](O)[C@@H](O)[C@H](O)CO [D-xylose] | ineffective | – |
| O=CC[C@@H](O)[C@H](O)[C@H](O)CO [2DOG, 2-deoxyglucose] | ineffective | cell killing [2]: about 80%; IC50 ([1]; Oryctolagus cuniculus, 0.5 h, prior incubated 30 min at 37° C. with 1 g VX2 tumor slices, read-out: half maximal inhibition of glycolysis): ~15 mM; concentration for maximal / complete inhibition of glycolysis ([1]; VX2 tumor slices, 2DOG maximal (70%), 3BrPA complete): ~50 mM; maximal inhibition of glycolysis ([1]; at almost 50 mM, VX2 tumor slices): 70% |
| O=C[C@H](O)[C@@H](O)[C@H](O)[C@H](S)COP(=O)(O)O [5-thio-D-glucose-6-phosphate] | ineffective | – |
| O=C[C@@H](O)[C@H](O)[C@@H](O)[C@@H](O)CO [L-glucose] | ineffective | – |

— patent publication US20100203110A1, “Therapeutics for Cancer Using 3-Bromopyruvate and Other Selective Inhibitors of ATP Production” (The Johns Hopkins University, priority 2006, published 2010)
